Laboratory results as given in the NIST ThermoML archive (doi:10.1016/j.fluid.2008.06.007).

Conditions: Liquid, Vibrating tube method

CCCCCO [pentan-1-ol]
mass density [kg/m3]
Conditions | 353.15 K | 363.15 K | 373.15 K | 383.15 K | 393.15 K | 403.15 K
100 kPa | 768.1 | 759.4 | 750.7 | 741.5 | 731.7 | 721.7
10000 kPa | 777.3 | 769.2 | 761.2 | 752.3 | 743.4 | 734.4
20000 kPa | 785.6 | 777.7 | 770.3 | 761.9 | 753.7 | 745.3
30000 kPa | 792.9 | 785.6 | 778.2 | 770.7 | 762.8 | 754.9
40000 kPa | 799.8 | 792.6 | 785.7 | 778.5 | 771 | 763.4
50000 kPa | 806.1 | 799.2 | 792.5 | 785.7 | 778.6 | 771.3
60000 kPa | 812 | 805.5 | 798.9 | 792.3 | 785.6 | 778.4
70000 kPa | 817.6 | 811.3 | 804.9 | 798.5 | 792 | 785.1
80000 kPa | 822.8 | 816.7 | 810.5 | 804.3 | 798.1 | 791.3
90000 kPa | 827.8 | 821.8 | 815.8 | 809.7 | 803.7 | 797.2
100000 kPa | 832.6 | 826.8 | 820.9 | 815 | 809.1 | 802.8
110000 kPa | 837.2 | 831.3 | 825.7 | 819.9 | 814.2 | 808
120000 kPa | 841.6 | 835.8 | 830.3 | 824.7 | 819.1 | 813
130000 kPa | 845.8 | 840.1 | 834.7 | 829.2 | 823.7 | 817.8
140000 kPa | 849.7 | 844.2 | 839 | 833.5 | 828.1 | 822.3
